The values that follow come from patent publication US20250345277A1, “Ionizable Liposome, Preparation Thereof, and Application Thereof in Gene Delivery” (MAXIRNA (ZHEJIANG) TECHNOLOGY CO. LTD., priority 2021, published 2025).

In one series the test system is DC2.4 cells. Briefly: In vitro transfection of DC2.4 cells with EGFP mRNA LNP preparation (flow cytometry). The class given is cell-based, mouse. The settings on record: for Cell Viability / Positive Rate (EGFP) / Fluorescence Intensity: DC2.4 cells; for Cell Viability / Positive Rate (EGFP): EGFP mRNA LNP, 200 ng mRNA per well, flow cytometry; for Fluorescence Intensity: EGFP mRNA expression level, normalized based on the sample with the highest fluorescence intensity. Summed up:
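DC2.4 is a mouse bone marrow-derived dendritic cell line, grown adherent at 37 °C, 5% CO2 and passaged with trypsin at 80-90% confluence. The EGFP mRNA LNP preparation was diluted in serum-free Opti-MEM to 1 μg/ml mRNA for transfection.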

Series [1] can be described thus: In vitro stability test of LNP preparation stored at 4-8 °C. The class given is physicochemical. The settings on record: stored at 4-8° C. for 16 weeks; transfection tested on DC2.4. The procedure:
The preparation from Example 2 was stored at 4° C.-8° C. Samples were taken every other week to test the transfection performance of the samples on DC2.4, the size of the nanoparticles and the polydispersity index PDI. The whole process lasted 16 weeks. […] Other LNP preparations were stored at 4-8° C. for 16 weeks, and the particle size, PDI, and cell transfection efficiency also maintained the initial state.

Each structure is given as a SMILES string.

Consider `CCCCCCCCCCC(O)CN(CCN1CCN(CCN(CCN(CC(O)CCCCCCCCCC)CC(O)CCCCCCCCCC)CCN(CC(O)CCCCCCCCCC)CC(O)CCCCCCCCCC)CC1)CC(O)CCCCCCCCCC` (stereo not drawn) [A-C12], for which, in the series with DC2.4 cells, the “Cell Viability” value was determined as 87.1%, the “Positive Rate (EGFP)” value turned out to be 73.3% and the “Fluorescence Intensity” value is on record as 0.84.

On to `CCCCCCCCCCCCC(O)CN(CCN1CCN(CCN(CCN(CC(O)CCCCCCCCCCCC)CC(O)CCCCCCCCCCCC)CCN(CC(O)CCCCCCCCCCCC)CC(O)CCCCCCCCCCCC)CC1)CC(O)CCCCCCCCCCCC` (stereo not drawn) [A-C14], for which, in the series on DC2.4 cells, the “Cell Viability” value amounted to 95.4%, the “Positive Rate (EGFP)” value turned out to be 92.3% and the “Fluorescence Intensity” value is 0.30.

With `CCCCCCCCCCCCCCC(O)CN(CCN1CCN(CCN(CCN(CC(O)CCCCCCCCCCCCCC)CC(O)CCCCCCCCCCCCCC)CCN(CC(O)CCCCCCCCCCCCCC)CC(O)CCCCCCCCCCCCCC)CC1)CC(O)CCCCCCCCCCCCCC` (stereo not drawn) [A-C16], in the series on DC2.4 cells, the “Cell Viability” value came out at 90.0%, the “Positive Rate (EGFP)” value worked out at 66.3% and the “Fluorescence Intensity” value turned out to be 0.80.

Turning to `CCCCCCCCCCCCCCCCC(O)CN(CCN1CCN(CCN(CCN(CC(O)CCCCCCCCCCCCCCCC)CC(O)CCCCCCCCCCCCCCCC)CCN(CC(O)CCCCCCCCCCCCCCCC)CC(O)CCCCCCCCCCCCCCCC)CC1)CC(O)CCCCCCCCCCCCCCCC` (stereo not drawn) [A-C18], in the series on DC2.4 cells, the “Cell Viability” value came to 93.0%, the “Positive Rate (EGFP)” value came to 61.9% and the “Fluorescence Intensity” value came out at 0.87.

Regarding `CCCCCCCCCCC(O)CN(CCOCCN(CCOCCN(CC(O)CCCCCCCCCC)CC(O)CCCCCCCCCC)CCN1CCN(CCOCCN(CC(O)CCCCCCCCCC)CC(O)CCCCCCCCCC)CC1)CC(O)CCCCCCCCCC` (stereo not drawn) [B-C12, 19-(2-(4-(2-(2-(di(2-hydroxydodecyl)amino)ethoxy)ethyl)piperazin-1-yl)ethyl)-13, 15-bis(2-hydroxydodecyl)-16,22-dioxa-13,19,25-triazaheptakadecane-11,27-diol], in the series on DC2.4 cells, the “Cell Viability” value came to 85.0%, the “Positive Rate (EGFP)” value is 83.0% and the “Fluorescence Intensity” value amounted to 0.20.

Turning to `CCCCCCCCCCCCC(O)CN(CCOCCN(CCOCCN(CC(O)CCCCCCCCCCCC)CC(O)CCCCCCCCCCCC)CCN1CCN(CCOCCN(CC(O)CCCCCCCCCCCC)CC(O)CCCCCCCCCCCC)CC1)CC(O)CCCCCCCCCCCC` (stereo not drawn) [B-C14], in the series with DC2.4 cells (DC2.4, after in vitro transfection), the “cell viability by flow cytometry (FIG. 1)” value is “high viability”. Besides, the “transfection efficiency (FIG. 2)” value in the series with DC2.4 cells (DC2.4, in the absence of AopE4) is reported as “high transfection efficiency”. In the series on DC2.4 cells, the “Cell Viability” value amounted to 95.0%, the “Positive Rate (EGFP)” value stood at 90.2% and the “Fluorescence Intensity” value came to 1.00. Further, the “particle size, PDI and cell transfection efficiency on storage (FIG. 8)” value in series [1] is recorded as “remained in the initial state”.

For the compound `CCCCCCCCCCC(O)CN(CCOCCOCCN(CCOCCOCCN(CC(O)CCCCCCCCCC)CC(O)CCCCCCCCCC)CCN1CCN(CCOCCOCCN(CC(O)CCCCCCCCCC)CC(O)CCCCCCCCCC)CC1)CC(O)CCCCCCCCCC` (stereo not drawn) [C-C12], in the series on DC2.4 cells, the “Cell Viability” value was determined as 94.0%, the “Positive Rate (EGFP)” value turned out to be 64.4% and the “Fluorescence Intensity” value is reported as 0.71.

Regarding `CCCCCCCCCCC(O)CN(CCOCCOCCOCCN(CCOCCOCCOCCN(CC(O)CCCCCCCCCC)CC(O)CCCCCCCCCC)CCN1CCN(CCOCCOCCOCCN(CC(O)CCCCCCCCCC)CC(O)CCCCCCCCCC)CC1)CC(O)CCCCCCCCCC` [D-C12], in the series on DC2.4 cells, the “Cell Viability” value is 90.8%, the “Positive Rate (EGFP)” value is on record as 65.6% and the “Fluorescence Intensity” value was 0.07.

For `CCCCCCCCCCCCC(O)CN(CCOCCOCCOCCN(CCOCCOCCOCCN(CC(O)CCCCCCCCCCCC)CC(O)CCCCCCCCCCCC)CCN1CCN(CCOCCOCCOCCN(CC(O)CCCCCCCCCCCC)CC(O)CCCCCCCCCCCC)CC1)CC(O)CCCCCCCCCCCC` [D-C14], in the series with DC2.4 cells, the “Cell Viability” value is recorded as 91.3%, the “Positive Rate (EGFP)” value is recorded as 96.7% and the “Fluorescence Intensity” value is listed as 0.95.

Take `CCCCCCCCCCCCCCC(O)CN(CCOCCOCCOCCN(CCOCCOCCOCCN(CC(O)CCCCCCCCCCCCCC)CC(O)CCCCCCCCCCCCCC)CCN1CCN(CCOCCOCCOCCN(CC(O)CCCCCCCCCCCCCC)CC(O)CCCCCCCCCCCCCC)CC1)CC(O)CCCCCCCCCCCCCC` [D-C16]: in the series with DC2.4 cells, the “Cell Viability” value is recorded as 91.1%, the “Positive Rate (EGFP)” value was 71.7% and the “Fluorescence Intensity” value is 0.82.

On to `CCCCCCCCCCCCCCCCC(O)CC(CCOCCOCCOCCN(CCOCCOCCOCCN(CC(O)CCCCCCCCCCCCCCCC)CC(O)CCCCCCCCCCCCCCCC)CCN1CCN(CCOCCOCCOCCN(CC(O)CCCCCCCCCCCCCCCC)CC(O)CCCCCCCCCCCCCCCC)CC1)CC(O)CCCCCCCCCCCCCCCC` [D-C18], for which, in the series with DC2.4 cells, the “Cell Viability” value turned out to be 81.5%, the “Positive Rate (EGFP)” value is on record as 64.4% and the “Fluorescence Intensity” value is given as 0.45.

On to `CCCCCCCCCCCCC(O)CN(CCN(CCN1CCN(C)CC1)CCN(CC(O)CCCCCCCCCCCC)CC(O)CCCCCCCCCCCC)CC(O)CCCCCCCCCCCC` (stereo not drawn) [E-C14], for which, in the series with DC2.4 cells, the “Cell Viability” value is recorded as above 99.0%, the “Positive Rate (EGFP)” value came out at 84.3% and the “Fluorescence Intensity” value stood at 0.45.

Take `CCCCCCCCCCCCC(O)CN(CCOCCN(CCOCCN(CC(O)CCCCCCCCCCCC)CC(O)CCCCCCCCCCCC)CCN1CCN(C)CC1)CC(O)CCCCCCCCCCCC` (stereo not drawn) [F-C14]: in the series on DC2.4 cells, the “Cell Viability” value amounted to 93.2%, the “Positive Rate (EGFP)” value turned out to be 73.5% and the “Fluorescence Intensity” value is 0.33.

For the compound `CCCCCCCCCCCCC(O)CN(CCOCCOCCN(CCOCCOCCN(CC(O)CCCCCCCCCCCC)CC(O)CCCCCCCCCCCC)CCN1CCN(C)CC1)CC(O)CCCCCCCCCCCC` (stereo not drawn) [G-C14], in the series on DC2.4 cells, the “Cell Viability” value is above 99.0%, the “Positive Rate (EGFP)” value stood at 67.5% and the “Fluorescence Intensity” value was determined as 0.30.

In the case of `CCCCCCCCCCCCC(O)CN(CCOCCOCCOCCN(CCOCCOCCOCCN(CC(O)CCCCCCCCCCCC)CC(O)CCCCCCCCCCCC)CCN1CCN(C)CC1)CC(O)CCCCCCCCCCCC` (stereo not drawn) [H-C14], in the series on DC2.4 cells, the “Cell Viability” value amounted to 91.7%, the “Positive Rate (EGFP)” value amounted to 66.8% and the “Fluorescence Intensity” value came out at 0.52.
